Reference: US3969521A, “Pharmaceutical compositions containing tetrahydroalstonine and method for treating circulation disorders” (Science Union et Cie, Societe Francaise de Recherche Medical, priority 1974, dated 1976)
“Also recorded” adds a separate entry of the source.

Columns and labels:
[1] = tested on: femoral blood flow; assay: Femoral blood flow, anaesthetized dogs; assay type: in vivo, dog; conditions: 100 mg/kg perorally
Procedure: Femoral blood flow was measured with an electromagnetic flowmeter (Statham).

[2] = tested on: recovery of learned memories; assay: Recovery of learned memories after electroshock (aquatic maze crossing); assay type: in vivo, rat
Source text: Effects of tetrahydroalstonine on the recovery of learned memories on rats.
Tetrahydroalstonine has been tested on lots of rats in order to determine how fast it allows the recovery of learned memories after supramaximal electroshock in comparision with Vincamine and Papaverine. These last compounds are known to be active on the circulation namely as vasodilating agents.
In this test, as described by C. Giurgea (J. Pharmacol. (Paris) 3 17 (1972)), the rats are submitted to a submaximal electroshock which causes a spatio-temporal desorientation. This syndrom is evidenced by the difficulties the tested animals encountered for crossing over a maze filled with cold water without any error, after they have been submitted to the electroshock. The rats have been previously trained to swimm through this maze and the training has been renewed four times for 2 days.
The electric shock was delivered by means of a Neurovar apparatus (ALVAR Electronics) the third day. 20 Minutes after the electro shock, each lot of rats is tested and the time for crossing over the maze is determined. Immediately after, the rats received the compound to be tested by intra oesophageal tubing. Each lot is then experienced four times, 1, 2, 3, and 4 hours after the electroshock.
The score of performances of each individual is recorded and every error during the crossing over noticed.
The compounds to be tested (papaverine, vincamine and tetrahydroalstonine) are given to the animals, suspended in an aqueous solution of carboxymethylcellulose and sorbitan monooleate.
Papaverine and vincamine were administered at dosis ranging from 1 to 20 mg/kg. Tetrahydroalstonine was administered at a dosis of 0.6 mg/kg, 6 mg/kg and 60 mg/kg.
A lot of rats received only the aqueous solvent under the same volume (0.5 ml/100 g animal) as controls.
Therein are reported for each lot of rats the number of errors and the average time for crossing over the maze during the 5 tests performed after the animals have been subjected to the electroshock.
The treatment has been given 20 mn after the electroshock, immediately
after the first crossing over

[3] = in vivo; conditions: mouse, po
Procedure: (§1) The search of an acute toxicity has been carried out on lots of mice (Rockland strain) weighing from […]. The mice received orally increasing dosis of tetrahydroalstonine suspended in an aqueous solvent.
(§2) The animals are kept under survey for 7 days and the deaths are recorded. The average lethal dosis has been graphically calculated according to the method of Wilcoxon and Litchfield. A lot of mice received only the solvent as controls.

[4] = tested on: mice (Rockland strain); assay: Acute toxicity, oral; conditions: mouse, in vivo
Procedure: as §1, §2

[5] = tested on: central nervous system; assay: Effects on the central nervous system; assay type: in vivo
[6] = tested on: sleep after injection of Nembutal; assay: Time of inducing the sleep after injection of Nembutal; assay type: in vivo; conditions: even at low dosages
[7] = tested on: analgetic effect of Morphine; assay: Analgetic effect of Morphine; conditions: in vivo
[8] = tested on: arterial blood pressure; conditions: dog, in vivo, 100 mg/kg
Procedure: This test has been carried out on lots of five dogs weighing from 16 to 20 kg. The dogs have been previously anaesthetized with chloralose by intravenous way and the intravenous injection of 50 mg heparine for each dog is renewed every 150 minutes.
The average arterial blood pressure is determined by dissection of a brachial artery and insertion of a catheter connected with a Statham P23 Db transducer.
The various parameters have been recorded by means on a polygraph and the hemodynamic survey has been afforded with two tracks-cathodic tubes.

[9] = French Pat. 1.397.537; cited from earlier work
[10] = tested on: carrageenin-induced paw oedema; conditions: rat, thesis (Kocialski); cited from earlier work
[11] = 0,6 mg/kg P.O., 20 minutes after electroshock (before treatment)
[12] = 6 mg/kg P.O., 20 minutes after electroshock (before treatment)
[13] = 60 mg/kg P.O., 20 minutes after electroshock (before treatment)

COC(=O)C1=CO[C@@H](C)[C@@H]2CN3CCc4c([nH]c5ccccc45)[C@@H]3C[C@H]12 [Tetrahydroalstonine]
vasodilatory effect on the femoral blood flow [1]: clear
Femoral vein flow ([1]; 45 minutes (Table I)): 38,0
Femoral vein flow ([1]; 67 minutes (Table I)): 38,7
Femoral vein flow ([1]; 90 minutes (Table I)): 37,1
Femoral vein flow ([1]; 112 minutes (Table I)): 34,5
Femoral vein flow ([1]; 135 minutes (Table I)): 27,7
a = variation of average number of errors as regard as the controls ([2]; 0,6 mg/kg P.O., 20 minutes (before treatment)): -
E = average number of errors [2, 11]: 12,3
T = average time for crossing over [2, 11]: 124,2 seconds
E = average number of errors ([2]; 0,6 mg/kg P.O., 60 minutes): 8,4
T = average time for crossing over ([2]; 0,6 mg/kg P.O., 60 minutes): 85,2 seconds
a = variation of average number of errors as regard as the controls ([2]; 0,6 mg/kg P.O., 60 minutes): -
E = average number of errors ([2]; 0,6 mg/kg P.O., 120 minutes): 6,2
T = average time for crossing over ([2]; 0,6 mg/kg P.O., 120 minutes): 66,4 seconds
a = variation of average number of errors as regard as the controls ([2]; 0,6 mg/kg P.O., 120 minutes): -
E = average number of errors ([2]; 0,6 mg/kg P.O., 180 minutes): 3,1
T = average time for crossing over ([2]; 0,6 mg/kg P.O., 180 minutes): 37,9 seconds
a = variation of average number of errors as regard as the controls ([2]; 0,6 mg/kg P.O., 180 minutes): -
b = statistical value (student's test), number of errors ([2]; 0,6 mg/kg P.O., 180 minutes): 0,01
E = average number of errors ([2]; 0,6 mg/kg P.O., 240 minutes): 2,0
T = average time for crossing over ([2]; 0,6 mg/kg P.O., 240 minutes): 29,4 seconds
a = variation of average number of errors as regard as the controls ([2]; 0,6 mg/kg P.O., 240 minutes): -
b = statistical value (student's test), number of errors ([2]; 0,6 mg/kg P.O., 240 minutes): 0,0005
potency compared with papaverine or vincamine ([2]; 0.6 mg/kg): competes with that of 20 mg/kg of papaverine or vincamine
time after which the statistically significant decrease of the number of mistakes appeared ([2]; 0.6 mg/kg): 180 mn
start of the improving effect ([2]; 6 mg/kg): 60 mn
time after which the statistically significant decrease of the number of mistakes appeared ([2]; 6 mg/kg): 120 mn
a = variation of average number of errors as regard as the controls ([2]; 6 mg/kg P.O., 20 minutes (before treatment)): -
E = average number of errors [2, 12]: 12,3
T = average time for crossing over [2, 12]: 133,5 seconds
E = average number of errors ([2]; 6 mg/kg P.O., 60 minutes): 6,9
T = average time for crossing over ([2]; 6 mg/kg P.O., 60 minutes): 75,1 seconds
a = variation of average number of errors as regard as the controls ([2]; 6 mg/kg P.O., 60 minutes): -
E = average number of errors ([2]; 6 mg/kg P.O., 120 minutes): 4,4
T = average time for crossing over ([2]; 6 mg/kg P.O., 120 minutes): 52,5 seconds
a = variation of average number of errors as regard as the controls ([2]; 6 mg/kg P.O., 120 minutes): -
b = statistical value (student's test), number of errors ([2]; 6 mg/kg P.O., 120 minutes): 0,05
E = average number of errors ([2]; 6 mg/kg P.O., 180 minutes): 3,6
T = average time for crossing over ([2]; 6 mg/kg P.O., 180 minutes): 54,6 seconds
a = variation of average number of errors as regard as the controls ([2]; 6 mg/kg P.O., 180 minutes): -
b = statistical value (student's test), number of errors ([2]; 6 mg/kg P.O., 180 minutes): 0,05
E = average number of errors ([2]; 6 mg/kg P.O., 240 minutes): 2,5
T = average time for crossing over ([2]; 6 mg/kg P.O., 240 minutes): 23,8 seconds
a = variation of average number of errors as regard as the controls ([2]; 6 mg/kg P.O., 240 minutes): -
b = statistical value (student's test), number of errors ([2]; 6 mg/kg P.O., 240 minutes): 0,005
time after which the statistically significant decrease of the number of mistakes appeared ([2]; 60 mg/kg): 60 mn
a = variation of average number of errors as regard as the controls ([2]; 60 mg/kg P.O., 20 minutes (before treatment)): -
E = average number of errors [2, 13]: 10,6
T = average time for crossing over [2, 13]: 135,0 seconds
E = average number of errors ([2]; 60 mg/kg P.O., 60 minutes): 5,8
T = average time for crossing over ([2]; 60 mg/kg P.O., 60 minutes): 62,2 seconds
a = variation of average number of errors as regard as the controls ([2]; 60 mg/kg P.O., 60 minutes): -
b = statistical value (student's test), number of errors ([2]; 60 mg/kg P.O., 60 minutes): 0,025
E = average number of errors ([2]; 60 mg/kg P.O., 120 minutes): 2,7
T = average time for crossing over ([2]; 60 mg/kg P.O., 120 minutes): 28,8 seconds
a = variation of average number of errors as regard as the controls ([2]; 60 mg/kg P.O., 120 minutes): -
b = statistical value (student's test), number of errors ([2]; 60 mg/kg P.O., 120 minutes): 0,005
E = average number of errors ([2]; 60 mg/kg P.O., 180 minutes): 1,6
T = average time for crossing over ([2]; 60 mg/kg P.O., 180 minutes): 18,8 seconds
a = variation of average number of errors as regard as the controls ([2]; 60 mg/kg P.O., 180 minutes): -
b = statistical value (student's test), number of errors ([2]; 60 mg/kg P.O., 180 minutes): 0,0005
E = average number of errors ([2]; 60 mg/kg P.O., 240 minutes): 1,8
T = average time for crossing over ([2]; 60 mg/kg P.O., 240 minutes): 20,1 seconds
a = variation of average number of errors as regard as the controls ([2]; 60 mg/kg P.O., 240 minutes): -
b = statistical value (student's test), number of errors ([2]; 60 mg/kg P.O., 240 minutes): 0,0005
dose dependence of the effect on number of mistakes ([2]; 0.6, 6 and 60 mg/kg): closely related to the used dosis
time after the convulsive shock at which recovery of the memory is complete ([2]; highest tested dosage (60 mg/kg)): 120 mn
activity relative to papaverine and vincamine ([2]; rat, in vivo): more active
effect on the recovery of learned memory ([2]; rat, in vivo): improving effect
LD50 at 168 h [3]: > 3000 mg/kg
toxicity [4]: practically devoid of toxic effect
effect on the central nervous system ([5]; dosage not stated): diphasic
effect on the central nervous system ([5]; higher dosages (20 to 40 mg/kg per os)): sedative effect
effect on the central nervous system ([5]; higher dosages (dose not stated)): sedative effects
effect on the central nervous system ([5]; low dosages): stimulating properties; also recorded: slight stimulating action
time of inducing the sleep after injection of Nembutal [6]: increase
effect on the analgetic effect of Morphine [7]: increases the analgetic effect of Morphine
noticeable decrease of the blood arterial pressure (incidence) [8]: one case out of five
adrenolytic activity [9]: adrenolytic agent
effect on carrageenin-induced paw oedema [10]: negative
